Values joined by “and” are separate entries in the source; they are usually repeats but may differ in a detail not shown here. Equal values may be shown once.
Tests used:
Type in all cases: in vivo
[1] = system: Matricaria inodora (scentless mayweed, MATIN); assay: Field trial, post-emergence % visual weed control, MATIN; settings: 14DAA
From the text: (§1) Except for the trials utilizing the OD formulations, Actirob B was applied at 0.5 or 1.0 liters per hectare (L/ha), or Polyglycol 26-2 was applied at 0.5 to 1.0 L/ha in all respective single and tankmixture treatments being evaluated.
(§2) Trials were established as randomized complete blocks (RCBD) with three to four replicates. Individual treatments were 2-2.5 meters (m) wide and 6-20 m long. An untreated control was included in each trial. All trial sites had naturally occurring populations of weeds.
(§3) Herbicides were applied with backpack or bicycle sprayers using compressed air, nitrogen (N2) or carbon dioxide (CO2) as a propellant. All sprayers delivered a uniform spray pattern that provided thorough coverage of the foliage using a water volume of 150-300 L/ha. All herbicides were applied post-emergence in the spring to early-summer At the time of herbicide applications, winter wheat crops were at the six-leaf to three-tiller stage. Broadleaf and grass weeds were at a similar stage of growth at the time of herbicide application, typically from five leaf to 3 tiller depending on the weed species and time of year.
(§4) The treated plots and control plots were rated blind at various intervals after application. […] The control of the target weeds was visually assessed as percent control, compared to an untreated control plot. The assessments were based on a percent visual reduction in pest plant biomass and/or stand reduction of weed population.
(§5) The efficacy of all treatments was assessed at 13-22 days after application (DAA) for an early season rating, 23-39 DAA for a mid-season rating, and 41-84 DAA for a late-season rating. The data were statistically analyzed using various statistical methods, generally including a Tukey's HSD Factorial Analysis of Variance with a significance level of 5%.
(§6) Colby's equation was used to determine the herbicidal effects expected from the mixtures (Colby, S. R. Calculation of the synergistic and antagonistic response of herbicide combinations. Weeds 1967, 15, 20-22). A t-test (alpha=0.05) between Colby predictions and observed combinations was used to test for significant differences indicating synergy or antagonism using replicate data.
(§7) Expected=A+B+C−(AB+AC+BC)/100+(ABC)/10,000

[2] = system: Viola arvensis Murr. (field violet, VIOAR); assay: Field trial, post-emergence % visual weed control, VIOAR
From the text: as §1, §2, §3, §4, §5, §6, §7

[3] = system: Lamium purpureum L. (purple deadnettle, LAMPU); assay: Field trial, post-emergence % visual weed control, LAMPU; settings: 15DAA
From the text: as §1, §2, §3, §4, §5, §6, §7

[4] = system: Matricaria recutita L. (wild chamomile, MATCH); assay: Field trial, post-emergence % visual weed control, MATCH
From the text: as §1, §2, §3, §4, §5, §6, §7

[5] = system: Stellaria media (L.) Vill. (common chickweed, STEME); assay: Field trial, post-emergence % visual weed control, STEME
From the text: as §1, §2, §3, §4, §5, §6, §7

[6] = system: Centaurea cyanus (cornflower, CENCY); assay: Field trial, post-emergence % visual weed control, CENCY
From the text: as §1, §2, §3, §4, §5, §6, §7

[7] = system: Galium aparine L. (catchweed bedstraw, GALAP); assay: Field trial, post-emergence % visual weed control, GALAP; settings: 28DAA, 3 g ae/ha
From the text: as §1, §2, §3, §4, §5
(§8) Colby's equation was used to determine the herbicidal effects expected from the mixtures (Colby, S. R. Calculation of the synergistic and antagonistic response of herbicide combinations. Weeds 1967, 15, 20-22). […]

[8] = system: Solanum nigrum L. (black nightshade, SOLNI); assay: Field trial, post-emergence % visual weed control, SOLNI; settings: 3 g ae/ha
From the text: as §1, §2, §3, §4, §5, §6, §7

[9] = system: Consolida regalis S. F. Gray (branching larkspur, CNSRE); assay: Field trial, post-emergence % visual weed control, CNSRE
From the text: as §1, §2, §3, §4, §5, §6, §7

[10] = system: Agropyron repens L. (quackgrass, AGRRE); assay: Field trial, post-emergence % visual weed control, AGRRE; settings: 14DAA, 3 g ae/ha
From the text: as §1, §2, §3, §4, §5, §8

[11] = system: Alopecurus myosuroides Huds. (blackgrass, ALOMY); assay: Field trial, post-emergence % visual weed control, ALOMY; settings: 15DAA, 4 g ae/ha
From the text: as §1, §2, §3, §4, §5, §8

[12] = system: Apera spica-venti (L.) Beauv. (windgrass, APESV); assay: Field trial, post-emergence % visual weed control, APESV
From the text: as §1, §2, §3, §4, §5, §6, §7

[13] = system: Echinochloa crus-galli (L.) P. Beauv. (barnyardgrass, ECHCG); assay: Field trial, post-emergence % visual weed control, ECHCG; settings: 3 g ae/ha
From the text: as §1, §2, §3, §4, §5, §6, §7

SMILES: COC(=O)c1nc(-c2ccc(Cl)c(OC)c2F)cc(N)c1Cl [Halauxifen-Methyl, methyl 4-amino-3-chloro-6-(4-chloro-2-fluoro-3-methoxyphenyl)pyridine-2-carboxylate]
- Mean % Weed Control ([1]; 3 g ae/ha): 0.0%
- Mean % Weed Control ([1]; 4 g ae/ha): 0.0%
- Mean % Weed Control ([2]; 14DAA, 3 g ae/ha): 0.0%
- Mean % Weed Control ([2]; 14DAA, 4 g ae/ha): 0.0%
- Mean % Weed Control ([2]; 56DAA, 3 g ae/ha): 0.0%
- Mean % Weed Control ([3]; 4.8 g ae/ha): 72.5%
- Mean % Weed Control ([3]; 6 g ae/ha): 55.0%
- Mean % Weed Control ([4]; 15DAA, 4.8 g ae/ha): 0.0%
- Mean % Weed Control ([4]; 61DAA, 4.8 g ae/ha): 0.0%
- Mean % Weed Control ([4]; 61DAA, 6 g ae/ha): 1.3% and 3.2%
- Mean % Weed Control ([4]; 78DAA, 4.8 g ae/ha): 6.3%
- Mean % Weed Control ([4]; 78DAA, 6 g ae/ha): 6.3%
- Mean % Weed Control ([5]; 15DAA, 4.8 g ae/ha): 0.0%
- Mean % Weed Control ([5]; 15DAA, 6 g ae/ha): 0.0%
- Mean % Weed Control ([5]; 61DAA, 4.8 g ae/ha): 0.0%
- Mean % Weed Control ([5]; 61DAA, 6 g ae/ha): 1.3% and 3.2%
- Mean % Weed Control ([5]; 78DAA, 4.8 g ae/ha): 6.3%
- Mean % Weed Control ([5]; 78DAA, 6 g ae/ha): 8.8%
- Mean % Weed Control ([6]; 28DAA, 3 g ae/ha): 75.0%
- Mean % Weed Control ([6]; 77DAA, 3 g ae/ha): 82.5%
- Mean % Weed Control ([6]; 84DAA, 3 g ae/ha): 1.3%
- Mean % Weed Control ([6]; 84DAA, 4 g ae/ha): 27.5%
- Mean % Weed Control [7]: 0.0%
- Mean % Weed Control ([8]; 29DAA): 10.0%
- Mean % Weed Control ([8]; 56DAA): 0.0%
- Mean % Weed Control ([9]; 31DAA, 3 g ae/ha): 68.3%
- Mean % Weed Control ([9]; 31DAA, 4 g ae/ha): 70.8%
- Mean % Weed Control ([9]; 53DAA, 3 g ae/ha): 70.0%
- Mean % Weed Control ([9]; 53DAA, 4 g ae/ha): 72.0%
- Mean % Weed Control ([9]; 84DAA, 3 g ae/ha): 70.0%
- Mean % Weed Control ([9]; 84DAA, 4 g ae/ha): 72.5%
- Mean % Weed Control [10]: 0.0%
- Mean % Weed Control [11]: 0.0%
- Mean % Weed Control ([12]; 14DAA, 3 g ae/ha): 0.0%
- Mean % Weed Control ([12]; 14DAA, 4 g ae/ha): 0.0%
- Mean % Weed Control ([12]; 28DAA, 3 g ae/ha): 0.0%
- Mean % Weed Control ([12]; 28DAA, 4 g ae/ha): 0.0%
- Mean % Weed Control ([12]; 56DAA, 3 g ae/ha): 0.0%
- Mean % Weed Control ([13]; 14DAA): 0.0%
- Mean % Weed Control ([13]; 29DAA): 0.0%
- Mean % Weed Control ([13]; 56DAA): 0.0%
